Assay results taken from ChEMBL document CHEMBL4665709, “Rational Avoidance of Protease Cleavage Sites and Symmetrical End-Tagging Significantly Enhances the Stability and Therapeutic Potential of Antimicrobial Peptides” (J Med Chem, 2020).
Values after ≈ are worked out from the molar mass of the structure shown. Where a SMILES comes first, the peptide text is derived from it.

Assays:
Escherichia coli [1] = test: Antibacterial activity against Escherichia coli ATCC 25922 after 18 to 24 hrs in presence of 6 uM NH4+ by CLSI-based broth microdilution method; assay type: functional; conditions: time hrs 18-24
[2] = Therapeutic index, ratio of MHC for human RBC to geometric mean of peptide MIC for Enterococcus faecalis ATCC 29212; assay type: toxicity; conditions: human red blood cells (RBC), read-out: TI
[3] = Therapeutic index, ratio of MHC for human RBC to geometric mean of peptide MIC for Salmonella typhimurium 14028; assay type: toxicity; conditions: human red blood cells (RBC), read-out: TI
Staphylococcus aureus [4] = test: Antibacterial activity against Staphylococcus aureus ATCC 29213 after 18 to 24 hrs in presence of 50% human serum by CLSI-based broth microdilution method; assay type: functional; conditions: time hrs 18-24
Salmonella typhimurium [5] = test: Antibacterial activity against Salmonella typhimurium 7731 after 18 to 24 hrs by CLSI-based broth microdilution method; assay type: functional, Salmonella enterica subsp. enterica serovar Typhimurium; conditions: Salmonella enterica, time hrs 18-24
Staphylococcus aureus [6] = test: Antibacterial activity against Staphylococcus aureus 11011 after 18 to 24 hrs by CLSI-based broth microdilution method; assay type: functional; conditions: time hrs 18-24
Escherichia coli [7] = test: Antibacterial activity against Escherichia coli ATCC 25922 after 18 to 24 hrs in presence of 25% human serum by CLSI-based broth microdilution method; assay type: functional; conditions: time hrs 18-24
Escherichia coli [8] = test: Antibacterial activity against Escherichia coli ATCC 25922 after 18 to 24 hrs by CLSI-based broth microdilution method; assay type: functional; conditions: time hrs 18-24
Staphylococcus aureus [9] = test: Antibacterial activity against Staphylococcus aureus ATCC 29213 after 18 to 24 hrs in presence of 150 mM Na+ by CLSI-based broth microdilution method; assay type: functional; conditions: time hrs 18-24
Staphylococcus aureus [10] = test: Antibacterial activity against Staphylococcus aureus ATCC 29213 after 18 to 24 hrs in presence of 4.5 mM K+ by CLSI-based broth microdilution method; assay type: functional; conditions: time hrs 18-24
Streptococcus agalactiae = test: Antibacterial activity against Streptococcus agalactiae H92 after 18 to 24 hrs by CLSI-based broth microdilution method; assay type: functional; conditions: time hrs 18-24
[11] = Stability of compound at 100 degreeC after 30 to 90 mins; assay type: physicochemical; conditions: time 30-90 min
Escherichia coli [12] = test: Antibacterial activity against Escherichia coli ATCC 25922 after 18 to 24 hrs in presence of 8 uM Zn2+ by CLSI-based broth microdilution method; assay type: functional; conditions: time hrs 18-24
[13] = Therapeutic index, ratio of MHC for human RBC to geometric mean of peptide MIC for Staphylococcus aureus 11011; assay type: toxicity; conditions: human red blood cells (RBC), read-out: TI
[14] = Hemolytic activity in human RBC assessed as hemolysis at 1 to 128 uM relative to control; assay type: ADME, cell-based, Erythrocyte; conditions: human red blood cells (RBC), dose 1-128 µM, read-out: Activity
Staphylococcus aureus [15] = test: Antibacterial activity against Staphylococcus aureus ATCC 29213 after 18 to 24 hrs in presence of 6 uM Fe3+ by CLSI-based broth microdilution method; assay type: functional; conditions: time hrs 18-24
[16] = Therapeutic index, ratio of MHC for human RBC to geometric mean of peptide MIC for Salmonella pullorum 7913; assay type: toxicity; conditions: human red blood cells (RBC), read-out: TI
Salmonella typhimurium [17] = test: Antibacterial activity against Salmonella typhimurium 14028 after 18 to 24 hrs by CLSI-based broth microdilution method; assay type: functional, Salmonella enterica subsp. enterica serovar Typhimurium; conditions: Salmonella enterica, time hrs 18-24
Staphylococcus aureus [18] = test: Antibacterial activity against Staphylococcus aureus ATCC 29213 after 18 to 24 hrs in presence of 8 uM Zn2+ by CLSI-based broth microdilution method; assay type: functional; conditions: time hrs 18-24
Escherichia coli [19] = test: Antibacterial activity against Escherichia coli ATCC 25922 after 18 to 24 hrs in presence of 150 mM Na+ by CLSI-based broth microdilution method; assay type: functional; conditions: time hrs 18-24
[20] = Therapeutic index, ratio of MHC for human RBC to geometric mean of peptide MIC for Salmonella typhimurium 7731; assay type: toxicity; conditions: human red blood cells (RBC), read-out: TI
[21] = system: Staphylococcus epidermidis; test: Antibacterial activity against Staphylococcus epidermidis ATCC 12228 after 18 to 24 hrs by CLSI-based broth microdilution method; assay type: functional; conditions: time hrs 18-24
Erythrocyte = test: Hemolytic activity in human RBC assessed as hemolysis; assay type: ADME, cell-based
Staphylococcus aureus [22] = test: Antibacterial activity against Staphylococcus aureus ATCC 29213 after 18 to 24 hrs in presence of 100% human serum by CLSI-based broth microdilution method; assay type: functional; conditions: time hrs 18-24
[23] = Therapeutic index, ratio of MHC for human RBC to geometric mean of peptide MIC for Salmonella choleraesuis 503; assay type: toxicity; conditions: human red blood cells (RBC), read-out: TI
[24] = Therapeutic index, ratio of MHC for human RBC to geometric mean of peptide MIC for Staphylococcus epidermidis ATCC 12228; assay type: toxicity; conditions: human red blood cells (RBC), read-out: TI
[25] = Therapeutic index, ratio of MHC for human RBC to geometric mean of peptide MIC for methicillin-resistant Staphylococcus aureus 43300; assay type: toxicity; conditions: human red blood cells (RBC), read-out: TI
Escherichia coli [26] = test: Antibacterial activity against Escherichia coli ATCC 25922 after 18 to 24 hrs in presence of 50% human serum by CLSI-based broth microdilution method; assay type: functional; conditions: time hrs 18-24
Enterococcus faecalis = test: Antibacterial activity against Enterococcus faecalis ATCC 29212 after 18 to 24 hrs by CLSI-based broth microdilution method; assay type: functional; conditions: time hrs 18-24
Escherichia coli [27] = test: Antibacterial activity against Escherichia coli ATCC 25922 after 18 to 24 hrs in presence of 6 uM Fe3+ by CLSI-based broth microdilution method; assay type: functional; conditions: time hrs 18-24
[28] = Cytotoxicity against mouse RAW264.7 cells assessed as cell viability at 128 uM by MTT assay relative to control; assay type: cell-based; conditions: read-out: Activity
Staphylococcus aureus [29] = test: Antibacterial activity against Staphylococcus aureus ATCC 29213 after 18 to 24 hrs in presence of 1 mM Mg2+ by CLSI-based broth microdilution method; assay type: functional; conditions: time hrs 18-24
[30] = Therapeutic index, ratio of MHC for human RBC to geometric mean of peptide MIC for Escherichia coli ATCC 25922; assay type: toxicity; conditions: human red blood cells (RBC), read-out: TI
[31] = Therapeutic index, ratio of MHC for human RBC to geometric mean of peptide MIC for Staphylococcus aureus ATCC 29213; assay type: toxicity; conditions: human red blood cells (RBC), read-out: TI
Escherichia coli [32] = test: Antibacterial activity against Escherichia coli ATCC 25922 after 18 to 24 hrs in presence of 100% human serum by CLSI-based broth microdilution method; assay type: functional; conditions: time hrs 18-24
Salmonella enterica = test: Antibacterial activity against Salmonella choleraesuis 503 after 18 to 24 hrs by CLSI-based broth microdilution method; assay type: functional; conditions: time hrs 18-24
[33] = Antibacterial activity against Salmonella pullorum 7913 after 18 to 24 hrs by CLSI-based broth microdilution method; assay type: functional, Salmonella enterica subsp. enterica serovar Pullorum; conditions: Salmonella enterica, time hrs 18-24
[34] = Therapeutic index, ratio of MHC for human RBC to geometric mean of peptide MIC for Streptococcus agalactiae H92; assay type: toxicity; conditions: human red blood cells (RBC), read-out: TI
Staphylococcus aureus [35] = test: Antibacterial activity against Staphylococcus aureus ATCC 29213 after 18 to 24 hrs in presence of 6 uM NH4+ by CLSI-based broth microdilution method; assay type: functional; conditions: time hrs 18-24
[36] = Therapeutic index, ratio of MHC for human RBC to geometric mean of peptide MIC for Escherichia coli UB1005; assay type: toxicity; conditions: human red blood cells (RBC), read-out: TI
Escherichia coli [37] = test: Antibacterial activity against Escherichia coli ATCC 25922 after 18 to 24 hrs in presence of 1 mM Mg2+ by CLSI-based broth microdilution method; assay type: functional; conditions: time hrs 18-24
Staphylococcus aureus [38] = test: Antibacterial activity against methicillin-resistant Staphylococcus aureus 43300 after 18 to 24 hrs by CLSI-based broth microdilution method; assay type: functional; conditions: time hrs 18-24
Escherichia coli [39] = test: Antibacterial activity against Escherichia coli ATCC 25922 after 18 to 24 hrs in presence of 4.5 mM K+ by CLSI-based broth microdilution method; assay type: functional; conditions: time hrs 18-24
[40] = Cytotoxicity against HEK-293T cells assessed as cell viability at 128 uM by MTT assay relative to control; assay type: cell-based; conditions: human, read-out: Activity
Staphylococcus aureus [41] = test: Antibacterial activity against Staphylococcus aureus ATCC 29213 after 18 to 24 hrs in presence of 25% human serum by CLSI-based broth microdilution method; assay type: functional; conditions: time hrs 18-24
Escherichia coli [42] = test: Antibacterial activity against Escherichia coli UB1005 after 18 to 24 hrs by CLSI-based broth microdilution method; assay type: functional; conditions: time hrs 18-24
Staphylococcus aureus [43] = test: Antibacterial activity against Staphylococcus aureus ATCC 29213 after 18 to 24 hrs by CLSI-based broth microdilution method; assay type: functional; conditions: time hrs 18-24

`CC[C@H](C)[C@H](N)C(=O)N[C@H](C(=O)N[C@@H](CS)C(=O)N[C@@H](CCCNC(=N)N)C(=O)N[C@@H](CCCCN)C(=O)N1CCC[C@H]1C(=O)N[C@H](C(=O)N[C@H](C(=O)N[C@@H](CS)C(=O)N[C@@H](CCCNC(=N)N)C(=O)N[C@@H](CCCCN)C(=O)N1CCC[C@H]1C(=O)N[C@H](C(=O)N[C@H](C(=O)N[C@@H](CS)C(=O)N[C@@H](CCCNC(=N)N)C(=O)N[C@@H](CCCCN)C(=O)N1CCC[C@H]1C(=O)N[C@H](C(=O)N[C@H](C(=O)N[C@@H](CS)C(=O)N[C@@H](CCCNC(=N)N)C(=O)N[C@@H](CCCCN)C(=O)N1CCC[C@H]1C(=O)N[C@H](C(=O)N[C@H](C(N)=O)[C@@H](C)CC)[C@@H](C)CC)[C@@H](C)CC)[C@@H](C)CC)[C@@H](C)CC)[C@@H](C)CC)[C@@H](C)CC)[C@@H](C)CC)[C@@H](C)CC` (H-IICRKPIICRKPIICRKPIICRKPII-NH2) gave an MIC (Escherichia coli [1]) of 2 µM, a selectivity ratio [2] of 6.35 and a selectivity ratio [3] of 50.8. It also gave an MIC (Staphylococcus aureus [4]) of 64 µM, an MIC (Salmonella typhimurium [5]) of 2 µM (≈ 6.17 µg/mL) and an MIC (Staphylococcus aureus [6]) of 16 µM (≈ 49.4 µg/mL). For the same molecule, the MIC (Escherichia coli [7]) was 4 µM, the MIC (Escherichia coli [8]) was 2 µM (≈ 6.17 µg/mL) and the MIC (Staphylococcus aureus [9]) was 64 µM. The MIC (Staphylococcus aureus [10]) was 64 µM, the MIC (Streptococcus agalactiae) was 16 µM (≈ 49.4 µg/mL) and the Stabilty [11] was “Stable”. For the same molecule, the MIC (Escherichia coli [12]) was 2 µM, the selectivity ratio [13] was 6.35 and the hemolysis at up to 128 µM [14] was < 5%. For the same molecule, the MIC (Staphylococcus aureus [15]) was 32 µM, the selectivity ratio [16] was 50.8 and the MIC (Salmonella typhimurium [17]) was 2 µM (≈ 6.17 µg/mL). It also gave an MIC (Staphylococcus aureus [18]) of 32 µM, an MIC (Escherichia coli [19]) of 8 µM and a selectivity ratio [20] of 50.8. For the same molecule, the MIC [21] was 16 µM (≈ 49.4 µg/mL), the MHC (Erythrocyte) was > 128 µM and the MIC (Staphylococcus aureus [22]) was 64 µM. It also gave a selectivity ratio [23] of 50.8, a selectivity ratio [24] of 6.35 and a selectivity ratio [25] of 6.35. For the same molecule, the MIC (Escherichia coli [26]) was 4 µM, the MIC (Enterococcus faecalis) was 32 µM (≈ 98.8 µg/mL) and the MIC (Escherichia coli [27]) was 2 µM. The viability at 128 µM [28] was > 90%, the MIC (Staphylococcus aureus [29]) was 64 µM and the selectivity ratio [30] was 50.8. It also gave a selectivity ratio [31] of 6.35, an MIC (Escherichia coli [32]) of 16 µM and an MIC (Salmonella enterica) of 4 µM (≈ 12.3 µg/mL). For the same molecule, the MIC [33] was 8 µM (≈ 24.7 µg/mL), the selectivity ratio [34] was 6.35 and the MIC (Staphylococcus aureus [35]) was 32 µM. The selectivity ratio [36] was 50.8, the MIC (Escherichia coli [37]) was 8 µM and the MIC (Staphylococcus aureus [38]) was 16 µM (≈ 49.4 µg/mL). The MIC (Escherichia coli [39]) was 2 µM, the viability at 128 µM [40] was > 90% and the MIC (Staphylococcus aureus [41]) was 64 µM. For the same molecule, the MIC (Escherichia coli [42]) was 1 µM (≈ 3.09 µg/mL) and the MIC (Staphylococcus aureus [43]) was 32 µM (≈ 98.8 µg/mL).
